Reference: US7741352B2, “KCNQ channel modulating compounds and their pharmaceutical use” (Neurosearch A/S, priority 2003, dated 2010)

Experiments:
human KCNQ4 channel = molecular target: T1, human KCNQ4 channel (Homo sapiens, UniProt P56696); test: Electrophysiological determination: whole-cell patch-clamp of voltage-activated KCNQ current; format: cell-based; settings: HEK293 cell line stably expressing human KCNQ4; for IK (%): current at end of step to −30 mV, baseline current defined as 100%, test concentration not given; for activator or inhibitor of the KCNQ channel (increase or decrease in current): whole-cell patch clamp
T1 construct: expressed in transfected cells
Protocol: KCNQ channels constitute a subfamily of the voltage-dependent potassium (K) channels. Five members of this family have been cloned (1-5) and they have been heterologously expressed in various homo- and heteromeric combinations. The ionic current through the channels is recorded in the whole-cell mode of the patch-clamp technique. The KCNQ currents are activated by a depolarising voltage step and it is investigated whether the test compound change the amount of basal current. Compounds that induce an increase in the voltage-activated current are called activators and the effect obtained by these activators is described as a percentage increase in baseline current at a given concentration.
A HEK293 cell line stably expressing the human KCNQ4 channel was obtained as described by Søgaard et al. [Søgaard R, Ljungstrøm T. Pedersen K A, Olesen S-P, Jensen B S: KCNQ4 channels expressed in mammalian cells: Functional characteristics and pharmacology; Am. J. Phys. 2000 280 C859-C866].
Experiments are carried out on a patch-clamp set-up. Cells plated on cover slips (Ø3.5 mm) are placed in a 15 μl perfusion chamber (flow rate ˜1 ml/min) mounted on an IMT-2 or IX-70 microscope equipped with Nomarski or Hoffmann optics. The microscope is placed on a vibration-free table in a grounded Faraday cage. All experiments are performed at room temperature (20-22° C.). The EPC-9 patch-clamp amplifier (HEKA-electronics, Lambrecht, Germany) is connected to a Macintosh computer via an ITC16 interface. Data are stored directly on the hard disk and analysed using IGOR software (Wavemetrics, Lake Oswego, USA).
The whole-cell configuration of the patch clamp technique is applied. In short: The Up of a borosilicate pipette (resistance 24 MΩ) is gently (remote control system) placed on the cell membrane. Light suction results in a giga seal (pipette resistance increases to more than 1 GΩ) and the cell membrane is then ruptured by more powerful suction. Cell capacitance is electronically compensated and the resistance between the pipette and the cell interior (the series resistance, Rs) is measured and compensated for. Usually the cell capacitance ranges from 5 to 20 pF (depending on cell size) and the series resistance is in the range 3 to 6 MΩ. Rs- as well as capacitance compensation are updated during the experiments (before each stimulus). All experiments with drifting Rs-values are discharged. Leak-subtractions are not performed but the leak is estimated by a hyper-polarisation voltage step.
The extracellular (bath) solution contains 144 mM NaCl, 2 mM CaCl2, 1 mM MgCl2, 10 mM HEPES (pH=7.4). […] By use of the program EqCal the concentration of free Ca^2+ have been calculated to 100 nM, the free Mg^2+ is 1 mM, and MgATP is 1.45 mM. […]

## Nc1cccc(-c2ccc(COc3ccc(C(=O)O)c(O)c3)cc2)c1 [Compound 3-11, 4-(3′-Amino-biphenyl-4-ylmethoxy)-2-hydroxy-benzoic acid]
Human KCNQ4 channel
  IK (%): 115%
  activator or inhibitor of the KCNQ channel (increase or decrease in current): activators
other
  melting point: 207 to 210 °C (dec.)

## O=C(O)c1ccc(-c2ccc(COc3ccc(C(=O)O)c(O)c3)cc2)cc1 [Compound 3-17, 4′-(4-Carboxy-3-hydroxy-phenoxymethyl)-biphenyl-4-carboxylic acid]
Human KCNQ4 channel
  IK (%): 115%
  activator or inhibitor of the KCNQ channel (increase or decrease in current): activators
other
  melting point: 279 to 284 °C (dec.)
